Assay results reported in PMC7940574 (Angewandte Chemie (International ed. in English), 2021).

Tested on: A549 cells
Assay: Flow cytometry annexin V / propidium iodide in A549 cells
Assay type: cell-based, human
Settings: 15 μM gefitinib

## COc1cc2ncnc(Nc3ccc(F)c(Cl)c3)c2cc1OCCCN1CCOCC1 [gefitinib]
  mode of cytotoxicity (annexin V vs propidium iodide): early apoptosis
